From patent US20230157282A1, “Synergistic Preservative/Personal Care Composition With A Polyglycerol Ester” (ARCH UK BIOCIDES LTD, priority 2020, published 2023)

System: Pseudomonas aeruginosa ATCC 15442
Assay: Suspension test: log reduction of Pseudomonas aeruginosa after a specified contact time
Assay type: cell-based
Protocol: The target organism Pseudomonas aeruginosa ATCC 15442 was taken from freezer stocks and grown for 24 hours on tryptone soy agar (TSA) at 37° C. A second subculture was produced from the first and grown with the same conditions. A test suspension was then created by adding loopfuls of organism to tryptone buffered saline and adjusting the cell concentration to 1×10^8 and 5×10^8 CFU/ml using an internally established calibration curve spectrophotometer at a wavelength of 600 nm. To establish the precise CFU/ml a 1 ml aliquot was then taken from the test suspension and serially diluted down to 10^−6 and 10^−7, 1 ml of each dilution was then plated in duplicate using the pour plate method on to TSA. The plates were then incubated for 24 hours at 37° C. and enumerated.
For each Active Ingredient tested a series of 3 samples were prepared in sterile distilled water;
Test sample 1—Active Ingredient alone (to measure basic efficacy of the Active Ingredient)
Test sample 2—Active Ingredient in combination with polyglyceryl-10 caprylate/caprate (to measure the efficacy of the combination of active ingredient and polyglycerol ester)
Control—A control sample of polyglyceryl-10 caprylate/caprate was prepared in deionized water to measure the efficacy of polyglycerol ester alone.
Each test sample was prepared at a concentration 10% higher than that of the target concentration to account for the dilution effect from the addition of the test organism suspension during the test procedure.
A test mixture was prepared by adding a 0.1 ml aliquot of test organism suspension to a tube followed by 0.9 ml of test sample (prepared as above). The combination was then mixed and a timer started immediately.
Upon achieving the specified contact time the test mixture was deactivated by adding a 0.1 ml aliquot of the test mixture to 0.9 ml of neutralizing broth and the whole solution mixed. The solution was left for 5 minutes to ensure the action of the active ingredient was effectively neutralized.
To quantify the surviving number of organisms in the neutralized test mixture, 4×0.025 ml aliquots were taken and spot plated onto the surface of dried TSA. The plates were then incubated for 24 hours at 37° C.
For spot plating, colonies from the incubated plates were enumerated using the lower count limit of <1 and the upper count limit of >150. […] For the upper limit, if 156 colonies were counted on a plate, >150 would be recorded and 150 would be used for the calculation.
[formula] • N0 is the number of cells per ml in test mixture at the beginning of contact time. It is one-tenth of the weighted mean of N due to the tenfold dilution by the addition of the test product.
Enumeration and Calculation of T (Test Mixture) • First, the mean average of cfu per 0.025 ml spots was established using the below calculation;
Log Reduction Calculations (N0− T) • Before calculating the log reduction both N0 and T were converted into a logarithm base 10 value. For example;
To calculate the final log reduction the following calculation was used;
The test procedure outlined above was used to test for synergy between polyglyceryl-10 caprylate/caprate (PG10CC) and the various active ingredients listed in Table 1. Varying concentrations were prepared and were tested at the times listed in Table 1 for the presence of Pseudomonas aeruginosa.

**Q.** Zinc pyrithione was tested. Which “Log Reduction” value (Zinc pyrithione 400 ppm, contact time 7 days) did it give?
**A.** Its value is 2.88.

**Q.** For `[H]/N=C(\N/C(=N/[H])NCCCCCCNC(=N)NC(=N)Nc1ccc(Cl)cc1)Nc1ccc(Cl)cc1` [chlorohexidine], which “Log Reduction” value (chlorohexidine 64 ppm, contact time 5 minutes) is on record?
**A.** Its value is 3.44.

**Q.** How did the “Log Reduction” value (Benzisothiazoline 100 ppm, contact time 48 hours) turn out when `O=c1[nH]sc2ccccc12` was run?
**A.** The value was 3.84.

**Q.** `O=C(O)c1ccccc1` [Benzoic acid] was tested. Which “Log Reduction” value (Benzoic acid 2000 ppm, contact time 2 hours) did it give?
**A.** Its value is under 2.85.

**Q.** Which “Log Reduction” value (Lactic acid 2000 ppm, contact time 3 hours) does the source give for `CC(O)C(=O)O` (stereo not drawn) [Lactic acid] here?
**A.** Its value is 4.03.

**Q.** With `O=C(O)CO` [Glycolic acid] as the compound, how does the “Log Reduction” value (Glycolic acid 1000 ppm, contact time 30 minutes) read?
**A.** Its value is 2.85.
